Results taken from EP4599827A1, “DGL FOR THE INDUCTION OF ENDOTHELIAL-DERIVED NO-DEPENDENT VASODILATION” (Dr. Kurt Wolff GmbH & Co. KG, priority 2024, dated 2025).

Columns and labels:
Type in all cases: cell-based, human
HDMECs = assay: Microfluorimetric measurement of NO (DAF-FM DA) in HDMECs; details: DAF-FM-DA microfluorimetry, increase vs control
Description: (§1) Adulte humane mikrovaskuläre Endothelzellen der Haut (HDMECs) wurden 2023 von Lonza Ltd (Basel, Schweiz) erworben und kultiviert in EBM™-2 Endothelial Cell Growth Basal Medium, ergänzt mit EGM™-2 MV Microvascular Endothelial SingleQuots™ Kit (beide von Lonza Ltd, Basel, Schweiz), enthaltend humanen epidermalen Wachstumsfaktor, vaskulären Endothelial Growth Factor, R^3-Insulin-like Growth Factor-1, Ascorbinsäure, Hydrocortison, humanen Fibroblasten-Wachstumsfaktor-Beta, fötales Rinderserum und Gentamicin/Amphotericin-B und gemäß den Richtlinien des Herstellers kultiviert. Die HDMECs wurden von 2 verschiedenen weiblichen Spendern initiiert und es wurden die Passagen 4 bis 8 wurden für die Experimente verwendet.
HDMECs wurden mit einer Dichte von 15.000 Zellen pro Well in einer schwarzen 96-WellPlatte mit klarem Boden (Greiner Bio-One, Kremsmünster, Österreich) ausgesät und in Wachstumsmedium bei 37 °C für 24 Stunden kultiviert. Anschließend wurden die Zellen mit 5 µM DAF-FM DA (4-Amino-5-methylamin-2',7'-difluororesceindiacetat) in phenolrotfreiem DMEM (beides von Thermo Fisher Scientific, Waltham, MA), ergänzt mit 0,5% FBS (Serana Europe GmbH, Brandenburg, Deutschland) für 1 Stunde bei 37 °C inkubiert. […]

eNOS [1] = assay: Western blot of eNOS protein content in HDMECs
Description: as §1
HDMECs wurden in 6-Well-Platten ausgesät und für 24 Stunden mit DMG-Na (0,005% und 0,05%) behandelt. Nach der Behandlung wurden die Zellen in Lysispuffer (30 mM TRIS, pH 7,6, 140 mM NaCl, 5 mM EDTA, 50 mM NaF, 1 mM Na3VO4), der mit Proteaseinhibitoren ergänzt wurde, geerntet. Nach kräftigem Vortexen und Zentrifugieren wurde der Proteingehalt der Proben unter Verwendung des Pierce BCA Protein Assay Kits (Thermo Fisher Scientific, Waltham, MA) bestimmt. Gleiche Mengen an Proteinproben wurden einer 7,5%-igen SDS-PAGE unterzogen und auf Nitrocellulose-Membranen (Bio-Rad Laboratories, Hercules, CA) übertragen. […]

eNOS [2] = assay: Immunocytochemistry of eNOS expression in HDMECs; details: semiquantitative immunocytochemistry, 24 h treatment, DMG-Na 0,005%, 0,02% and 0,05%
Description: as §1
HDMECs (5.000 Zellen pro 10 mm runde Glasdeckgläser), die mit DMG-Na (0,005%, 0,02% und 0,05%) behandelt wurden, wurden in 1% Paraformaldehyd (PFA, Merck KGaA, Darmstadt) für 10 Minuten bei Raumtemperatur fixiert und nach einem Waschschritt mit phosphatgepufferter Kochsalzlösung (PBS, Merck KGaA) für 5 Minuten mit -20 °C kalter Ethanol-Essigsäure (2:1) nachfixiert. […]

CN(C)CC(=O)O [DMG-Na, N,N-Dimethylglycin-Natriumsalz]
zelluläre NO-Produktion (HDMECs; 0.02%, p=0,0002): statistisch signifikant | zelluläre NO-Produktion (HDMECs; 0.05%, p=0,0001): statistisch signifikant | Proteingehalt von eNOS (eNOS [1]; 24 h, 0,05% DMG-Na, increase vs control, p=0,0189): statistisch signifikant | Proteingehalt von eNOS (eNOS [1]; 24 h, DMG-Na 0,005% and 0,05%, vs control): dosisabhängig | Expression von eNOS (eNOS [2]): Expression von eNOS nach 24-stündiger Behandlung zu erhöhen
